# Test results: patent US20220386606A1, “SPECIFICALLY SUBSTITUTED 3-PHENYL-5-SPIROCYCLOPENTYL-3-PYRROLIN-2-ONES AND THEIR USE AS HERBICIDES” (Bayer Aktiengesellschaft, priority 2019, published 2022)
# Legend:
# [1] = system: SETVI; assay: Pre-emergence herbicidal action against SETVI; type: in vivo, Setaria viridis; conditions: 320 g/ha, scored visually after 3 weeks vs untreated controls
# How it was run: (§1)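 Herbicidal activity is expressed as percent visual damage compared with untreated controls, where 100% means dead plants, assessed 3 weeks after pre-emergence treatment of sown, soil-covered seeds in sandy loam under greenhouse conditions.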
# [2] = system: LOLRI; assay: Pre-emergence herbicidal action against LOLRI (Table 8, titled post-emergence at 320 g/ha); type: in vivo, Lolium rigidum; conditions: table stands in the pre-emergence section
# How it was run: as §1
# [3] = system: ECHCG; assay: Post-emergence herbicidal action against ECHCG; type: in vivo, Echinochloa crus-galli; conditions: 80 g/ha, visual assessment about 3 weeks after treatment vs untreated controls
# How it was run: (§2)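 Weeds and crops grown in sandy loam in the greenhouse, treated post-emergence at the one-leaf stage (2–3 weeks after sowing). WP or EC formulations sprayed as aqueous suspension/emulsion at 600–800 l/ha water with 0.2% wetting agent. Visual % activity scored after about 3 weeks versus untreated controls (100% = dead, 0% = like control).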
# [4] = system: DIGSA; assay: Pre-emergence herbicidal action against DIGSA; type: in vivo, Digitaria sanguinalis; conditions: 320 g/ha, scored visually after 3 weeks vs untreated controls
# How it was run: as §1
# [5] = system: AVEFA; assay: Post-emergence herbicidal action against AVEFA; type: in vivo, Avena fatua; conditions: 80 g/ha, visual assessment after about 3 weeks
# How it was run: as §2
# [6] = system: VERPE; assay: Pre-emergence herbicidal action against VERPE; type: in vivo, Veronica persica; conditions: 320 g/ha
# Source text: (§3) Seeds of monocotyledonous and dicotyledonous weed plants and crop plants are laid out in sandy loam soil in wood-fiber pots and covered with soil. The compounds of the invention, formulated in the form of wettable powders (WP) or as emulsion concentrates (EC), are then applied to the surface of the covering soil as aqueous suspension or emulsion at a water application rate equating to 600 to 800 L/ha with addition of 0.2% wetting agent.
# (§4) After the treatment, the pots are placed in a greenhouse and kept under good growth conditions for the trial plants. The damage to the test plants is scored visually after a test period of 3 weeks by comparison with untreated controls (herbicidal activity in percent (%): 100% activity=the plants have died, 0% activity=like control plants).
# [7] = system: ALOMY; assay: Post-emergence herbicidal action against ALOMY; type: in vivo, Alopecurus myosuroides; conditions: 80 g/ha, visual assessment after about 3 weeks
# How it was run: as §2
# [8] = system: AMARE; assay: Pre-emergence herbicidal action against AMARE; type: in vivo, Amaranthus retroflexus; conditions: 320 g/ha
# Source text: as §3, §4
# [9] = system: DIGSA; assay: Post-emergence herbicidal action against DIGSA; type: in vivo, Digitaria sanguinalis; conditions: 80 g/ha, visual assessment about 3 weeks after treatment vs untreated controls
# How it was run: as §2
# [10] = system: ALOMY; assay: Pre-emergence herbicidal action against ALOMY; type: in vivo, Alopecurus myosuroides; conditions: 320 g/ha, scored visually after 3 weeks vs untreated controls
# How it was run: as §1
# [11] = system: ECHCG; assay: Pre-emergence herbicidal action against ECHCG; type: in vivo, Echinochloa crus-galli; conditions: 320 g/ha, scored visually after 3 weeks vs untreated controls
# How it was run: as §1
# [12] = system: LOLRI; assay: Post-emergence herbicidal action against LOLRI; type: in vivo, Lolium rigidum; conditions: 80 g/ha, visual assessment about 3 weeks after treatment vs untreated controls
# How it was run: as §2
# [13] = system: SETVI; assay: Post-emergence herbicidal action against SETVI; type: in vivo, Setaria viridis; conditions: 80 g/ha, visual assessment about 3 weeks after treatment vs untreated controls
# How it was run: as §2
# [14] = system: VIOTR; assay: Pre-emergence herbicidal action against VIOTR; type: in vivo, Viola tricolor; conditions: 320 g/ha
# Source text: as §3, §4
# [15] = system: AVEFA; assay: Pre-emergence herbicidal action against AVEFA; type: in vivo, Avena fatua; conditions: 320 g/ha, scored visually after 3 weeks vs untreated controls
# How it was run: as §1
SMILES,Pre-emergence action against SETVI in % [1],Pre-emergence herbicidal action against LOLRI in % [2],Post-emergence action against ECHCG in % [3],Pre-emergence action against DIGSA in % [4],Post-emergence action against AVEFA in % [5],Pre-emergence action against VERPE in % [6],Post-emergence action against ALOMY in % [7],Pre-emergence action against AMARE in % [8],Post-emergence action against DIGSA in % [9],Pre-emergence action against ALOMY in % [10],Pre-emergence action against ECHCG in % [11],Post-emergence action against LOLRI in % [12],Post-emergence action against SETVI in % [13],Pre-emergence action against VIOTR in % [14],Pre-emergence action against AVEFA in % [15]
CC#Cc1cc(C)c(C2=C(OC(=O)C(C)C)C3(CCC(COCC)C3)NC2=O)c(Br)c1 (stereo not shown) [Example P-37],100%,100%,100%,100%,90%,80%,100%,100%,100%,100%,100%,100%,100%,100%,80%
CC#Cc1cc(C)c(C2=C(OC(=O)C(C)C)C3(CCC(COCC)C3)NC2=O)c(OC)c1 (stereo not shown) [Example P-50],100%,100%,100%,100%,90%,80%,100%,100%,90%,100%,100%,100%,100%,100%,100%
CC#Cc1cc(F)c(C2=C(OC(=O)C(C)C)C3(CCC(COCC)C3)NC2=O)c(OC)c1 (stereo not shown) [Example P-67],100%,90%,100%,100%,90%,80%,100%,80%,–,100%,100%,90%,100%,–,80%
CC#Cc1cc(C)c(C2=C(OC(=O)OCC)C3(CCC(COCCOC)C3)NC2=O)c(OC)c1 (stereo not shown) [Example P-79],100%,100%,100%,100%,90%,90%,100%,80%,90%,100%,100%,90%,100%,100%,100%
C#CCOCC1CCC2(C1)NC(=O)C(c1c(C)cc(C#CC)cc1Cl)=C2OC(=O)OCC (stereo not shown) [Example P-99],100%,100%,100%,100%,80%,100%,100%,100%,90%,100%,100%,90%,100%,100%,100%
